Results published in patent US20120321694A1, “COMPOSITIONS AND USES” (priority 2010, published 2012).
Where no end group is shown, it is not given here. The star is where a group is joined. Pam3Cys = N-terminal lipid (lipidation), CCCCCCCCCCCCCCCC(=O)N[C@@H](CSCC(COC(=O)CCCCCCCCCCCCCCC)OC(=O)CCCCCCCCCCCCCCC)C(=O)*

Assays:
Aβ42 = assay: Anti-Aβ42 immunogenicity in amyloid deposition mouse model; type: in vivo, TASTPM mice; conditions: 12 injections, intramuscular route; FIG. 29
TASTPM mice [1] = assay: Survival of TASTPM mice; type: in vivo; conditions: weekly injections, followed for 112 days; PBS 13 out 25; FIG. 31
Source text: The usage of the TLR2 agonist, i.e. Pam3CysLip Aβ1-6 peptide, improves the survival rate of TASTPM mouse model. 23 out of 25 mice survived after weekly injections of Pam3CysLip Aβ1-6 peptide compared to PBS injected animals in which only 13 out 25 TASTPM mice survived (followed for 112 days).

TASTPM mice [2] = assay: T-water maze in TASTPM mice; type: in vivo; conditions: 12 weekly i.m. injections; vs PBS; FIG. 30
Description: To determine whether a TLR2 agonist will improve the cognitive impairment in TASTPM mice, the Pam3CysLip adjuvant fused to the Aβ1-6 peptide was injected 12 times at weekly basis using the intramuscular route and the memory was assessed using the T-water maze test. […] TASTPM mice have received one a week for a period of 12 weeks the following treatment: PBS or mice have received once a week for a period of 12 weeks the following treatment: PBS or of Pam3CysLip Aβ1-6 peptide.

BV2 microglia cells = assay: In vitro phagocytosis of Aβ1-42 in BV2 cells (Western blot); type: cell-based, mouse; conditions: 5 μg/mL cytochalasin D, 30 min before; FIG. 16
Description: For total Aβ detection, 10-30 μg of cell extracts were separated on a precast 10-20% SDS polyacrylamide Tris-Tricine gel (Bio-Rad, Canada). Separated proteins were then transferred onto polyvinylidene fluoride (PVDF) membranes (PerkinElmer, Canada). Membrane were incubated in DPBS (Gibco, USA) at 90° C. for 10 min. […] Films were digitalized using a HP Scanjet 4370 (HP) and signal intensity was measured using ImageJ (version 1.44p, NIH).
BV2 microglia cells were seeded at 900000 cells/60 mm cell culture Petri dish 24 hours prior the experiment, and cultured in complete media (Dulbecco's Modified Eagle Medium (DMEM, Gibco, USA) supplemented with 10% fetal bovine serum (FBS) (Gibco, USA), 1 mM sodium pyruvate (Gibco, USA) and 100 U/mL of penicillin and 100 μg/mL of streptomycin (Gibco, USA)). […] Protein concentration in supernatant or cell extracts was then measured using the Bradford method (Coomassie Plus, The better Bradford assay reagent, Thermoscientific, USA) accordingly to the manufacturer recommendation and equal amount of protein were then analyzed by Western blot. […]

Row | Molecule | anti Aβ42 specific immunogenicity (Aβ42) | mice survived (TASTPM mice [1]) | T-water maze, right-left discrimination tests (working memory) (TASTPM mice [2]) | effect on 2E7-stimulated cellular uptake of Aβ1-42 (BV2 microglia cells)
1 | Pam3Cys—SQ EPAAPAAEAT PAAEAPDAEFRH (Pam3Cys-SQEPAAPAAEATPAAEAPDAEFRH) [Pam3CysLip Aβ1-6 peptide] | High and specific anti Aβ42 specific immunogenicity | 23 out of 25 | trend of improvement | –
2 | C=C1[C@@H](C)[C@H]2[C@H](Cc3ccccc3)NC(=O)[C@]23[C@H](OC(C)=O)/C=C/[C@@](C)(O)C(=O)[C@@H](C)C/C=C/[C@H]3[C@@H]1O [cytochalasin D] | – | – | – | further inhibited
